PubChem BioAssay (NCI)
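Briefly, cells in 96-well plates were exposed to five compound concentrations for 48 h, and endpoints were estimated by linear interpolation. Here, GI50 denotes the concentration required for 50% inhibition of growth. TGI denotes the concentration required for complete inhibition of growth.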

What was measured:
Assay in all cases: inhibition of tumour cell growth, NCI panel, 48 h
A498 renal = system: A498 renal
CCRF-CEM leukemia = system: CCRF-CEM leukemia
DU-145 prostate = system: DU-145 prostate
HL-60(TB) leukemia = system: HL-60(TB) leukemia
MALME-3M melanoma = system: MALME-3M melanoma
MCF7 breast = system: MCF7 breast
MDA-MB-231 breast = system: MDA-MB-231 breast
MOLT-4 leukemia = system: MOLT-4 leukemia
OVCAR-3 ovarian = system: OVCAR-3 ovarian
SF-268 CNS = system: SF-268 CNS

| SMILES | GI50 (A498 renal) [nM] | TGI (A498 renal) [µM] | GI50 (CCRF-CEM leukemia) [nM] | TGI (CCRF-CEM leukemia) [µM] | GI50 (DU-145 prostate) [µM] | TGI (DU-145 prostate) [µM] | GI50 (HL-60(TB) leukemia) [nM] | TGI (HL-60(TB) leukemia) [µM] | GI50 (MALME-3M melanoma) [nM] | TGI (MALME-3M melanoma) [µM] | GI50 (MCF7 breast) [nM] | TGI (MCF7 breast) [µM] | GI50 (MDA-MB-231 breast) [nM] | TGI (MDA-MB-231 breast) [µM] | GI50 (MOLT-4 leukemia) [nM] | TGI (MOLT-4 leukemia) [µM] | GI50 (OVCAR-3 ovarian) [nM] | TGI (OVCAR-3 ovarian) [µM] | GI50 (SF-268 CNS) [µM] | TGI (SF-268 CNS) [µM] |
| --- | --- | --- | --- | --- | --- | --- | --- | --- | --- | --- | --- | --- | --- | --- | --- | --- | --- | --- | --- | --- |
| Cc1cc2c(C(=O)NC[C@H](C)c3ccccc3)c(O)c(O)cc2c(O)c1-c1c(C)cc2c(C(=O)NC[C@H](C)c3ccccc3)c(O)c(O)cc2c1O | 316 | 7.54 | 122 | 11 | 0.3 | 14.3 | 901 | 8.57 | 1780 | 7.23 | 68.5 | 4.2 | 677 | 6.53 | 199 | 7.8 | 306 | 1.55 | 0.234 | 3.7 |
| CCOC(=O)Cc1c(C)c2cc(C(=O)c3ccccc3)c(O)cc2oc1=O | – | 80.2 | – | > 100 | – | > 100 | – | 53.8 | – | 62.1 | – | 63.9 | – | 72 | – | > 100 | – | 53.8 | – | 84.9 |
| COc1cc2c(cc1OC(C)C)[C@H](c1ccc(Cl)cc1)N(c1ccc(N(C)CC3CCC(N4CCN(C)C(=O)C4)CC3)cc1)C(=O)C2 (stereo not given in full) | 1380 | 6.49 | 2610 | 7.48 | 5.3 | 11.2 | 2190 | 5.87 | 90 | 2.74 | 271 | 3.61 | 2040 | 4.02 | 363 | 5.77 | 2600 | 7.07 | 3.01 | 8.72 |
| C/C=C(\C)c1cc(=O)c2c(C)cc3c(c2o1)C(=O)c1c(O)c(C2CC(C)(N(C)C)C(OC(C)=O)C(C)O2)cc(C2CC(N(C)C)C(O)C(C)O2)c1C3=O (stereo not given) | – | 11.1 | – | > 50 | – | > 50 | – | > 50 | – | 1.13 | – | 7.85 | – | 5.96 | – | > 15.2 | – | > 21 | – | 9.56 |
| O=C(O)CCNCC(=O)O | – | > 100 | – | > 100 | – | > 100 | – | > 100 | – | > 100 | – | > 100 | – | > 100 | – | > 100 | – | > 100 | – | > 100 |
| CNC(=O)c1c(C)oc2cc(Oc3ncnc4cc(OC)c(OC)cc34)ccc12 | 946 | 5.44 | > 100000 | > 100 | > 100 | > 100 | > 100000 | > 100 | > 100000 | > 100 | > 100000 | > 100 | > 100000 | > 100 | > 100000 | > 100 | > 100000 | > 100 | > 100 | > 100 |
| CN[C@H]1CN(c2ccc3c(=O)c(C(=O)O)cn(-c4nccs4)c3n2)C[C@@H]1OC | 273 | 2.01 | 316 | > 22.9 | 1.28 | 5.28 | 292 | 2.07 | 516 | 2.27 | 358 | 5.07 | 1520 | 6.92 | 126 | 1 | 1820 | 6.48 | 0.706 | 6.49 |
| O=c1oc2ccc(I)cc2c(=O)n1-c1ccc(Br)cc1F | 225 | 0.697 | 1930 | 10.4 | 1.04 | 28.8 | 588 | 3.74 | 462 | 2.55 | 1340 | 9.22 | 457 | 3.79 | 1590 | 5.18 | 511 | 8.89 | 0.673 | 8.52 |
| O=C(O)c1cc(-c2ccc3cc4c(cc3c2)OCO4)nc2ccccc12 | – | 75.1 | – | 35.4 | – | > 100 | – | > 100 | – | > 100 | – | > 100 | – | > 100 | – | > 100 | – | > 100 | – | > 100 |
| CCc1nc(N)nc(N)c1-c1ccc(Cl)c([N+](=O)[O-])c1 | – | > 96 | – | > 32.7 | – | > 100 | – | > 51.5 | – | > 100 | – | > 89.7 | – | > 100 | – | > 65.2 | – | > 100 | – | > 100 |
| CCOC(=O)C1=CCCC[C@H]1S(=O)(=O)Nc1ccc(F)cc1Cl | 42600 | > 100 | 21400 | 84.9 | 25.4 | > 100 | 15700 | 47.9 | 24400 | 85.2 | 19900 | > 100 | 28400 | 98.6 | 27300 | 92.2 | 23200 | 77.3 | 24.6 | > 100 |
| O=c1c2c(nc3n1CCS3)[nH]c1cc([N+](=O)[O-])ccc12 | > 100000 | > 100 | > 100000 | > 100 | > 100 | > 100 | 20100 | > 100 | > 100000 | > 100 | 7570 | 30.9 | > 100000 | > 100 | 81500 | > 100 | 25500 | 81.2 | > 100 | > 100 |
| CNC(=O)c1ccc(N2C(=S)N(c3cnc(C#N)c(C(F)(F)F)c3)C(=O)C23CCC3)cc1F | > 53200 | > 100 | > 100000 | > 100 | > 100 | > 100 | 63900 | > 100 | 98300 | > 100 | 99800 | > 100 | > 100000 | > 100 | 61900 | > 100 | > 100000 | > 100 | > 100 | > 100 |
| O=C1Nc2c(ccc(Cl)c2Cl)/C1=C/c1cc(Br)c(O)c(Br)c1 | 3900 | 23.3 | 3950 | > 65.4 | 14.3 | > 100 | 3010 | > 23.8 | 2530 | 32.4 | 3400 | > 71.9 | 6810 | 49.6 | 4370 | > 76.4 | 3140 | 12 | 14.6 | > 100 |
| COc1ccc2ncn(-c3cc(O[C@H](C)c4ccccc4C(F)(F)F)c(C(N)=O)s3)c2c1 | 76.4 | 0.597 | 82.1 | 14.5 | 0.0784 | 0.242 | 90.5 | 1.01 | 4500 | 9.51 | 63.7 | 13 | 167 | 5.19 | 122 | 4.43 | 85.8 | 0.863 | 0.235 | 8.95 |
| O=C(O)CSc1n[nH]c(=O)[nH]c1=O | – | > 100 | – | > 100 | – | > 100 | – | > 100 | – | > 100 | – | > 100 | – | > 100 | – | > 100 | – | > 100 | – | > 100 |
